In ChEMBL document CHEMBL1201862, “PubChem BioAssay data set” (2004):
Activity calls are given as the source filed them.

Assays:
Bcl-2-related protein A1 [1] = biological target: T1, Bcl-2-related protein A1 (Mus musculus, UniProt Q07440); assay: displacement of Bid BH3 peptide from Bfl-1 – biochemical, fluorescence polarization, FITC-Bid, mouse, primary screen (AID 432)
T1 sequence (Q07440 whole entry): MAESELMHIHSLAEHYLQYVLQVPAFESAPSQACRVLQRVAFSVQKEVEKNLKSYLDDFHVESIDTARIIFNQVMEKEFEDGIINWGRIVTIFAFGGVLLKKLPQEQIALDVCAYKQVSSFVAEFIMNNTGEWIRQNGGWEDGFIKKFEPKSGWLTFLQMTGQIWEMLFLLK

Bcl-2-related protein A1 [2] = biological target: T1, Bcl-2-related protein A1; assay: small-molecule antagonists of Bfl-1/BH3 interaction – biochemical, TR-FRET, mouse Bfl-1, confirmation (AID 621);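 also: TR-FRET binding of GST-Bfl-1 to FITC-labelled Bid peptide via terbium antibody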
BJ [3] = assay: BJ-TERT fibroblast viability loss – cell-based, RAS-independent, luminescence, dose response (AID 1933); type: functional; details: Homo sapiens
BJ [4] = assay: cells; type: functional, cell-based; details: Homo sapiens
[5] = Luminescence-based dose response cell-based high throughput screening assay for cytotoxic compounds using the IEC-6 intestinal epithelial cell line. [Related pubchem assays: 1858 (Summary AID.), 1825 (Counterscreen.), 1907 (Confirmation screen.)]; type: functional
BJ [6] = assay: BJ-TERT-LT-ST fibroblast viability loss – cell-based, RAS-independent, luminescence, dose response (AID 1935); type: functional; details: Homo sapiens;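 also: BJ fibroblasts immortalized with TERT plus LT and ST oncogenes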
[7] = DRD fibroblast viability loss – cell-based, non-viral oncogenic, luminescence, dose response (AID 1934); type: functional; details: Homo sapiens
[8] = THP-1 cell cytotoxicity, dose response, cytotoxicity control for non-replicating M. tuberculosis project (AID 489025); type: functional
[9] = HepG2 cell cytotoxicity, dose response, cytotoxicity control for non-replicating M. tuberculosis project (AID 489018); type: functional; details: Mycobacterium tuberculosis
[10] = Vero E6 cell cytotoxicity, dose response, cytotoxicity control for non-replicating M. tuberculosis project, secondary assay (AID 492998); type: functional, VeroE6; details: Vero C1008
Nonstructural protein 1 = Nonstructural protein 1 (Influenza A virus, UniProt Q194T2); type: functional, Influenza A virus (A/California/07/2009(H1N1))
Chain of Nonstructural protein 1 (Q194T2 whole entry): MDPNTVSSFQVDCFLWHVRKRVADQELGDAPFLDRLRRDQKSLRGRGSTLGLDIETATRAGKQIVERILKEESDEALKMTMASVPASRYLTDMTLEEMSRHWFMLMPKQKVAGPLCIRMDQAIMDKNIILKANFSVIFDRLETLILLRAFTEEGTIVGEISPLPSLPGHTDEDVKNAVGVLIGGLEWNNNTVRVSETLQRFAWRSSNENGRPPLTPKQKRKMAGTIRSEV

cells = type: functional
Vero [11] = assay: cells; type: functional, cell-based; details: Chlorocebus sabaeus
BJ [12] = assay: growth inhibition of engineered Ras-driven BJ cells – cell-based, alamar blue fluorescence, cherrypicked samples, dose response (AID 2631); type: functional; details: Homo sapiens;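 also: confirmatory dose-response assay in RAS-dependent BJ fibroblasts engineered with TERT, LT and ST, with cytotoxicity read by fluorescence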
INS1 = assay: INS-1E survival protection against cytokine death – cell-based, luminescence, retest, dose response (AID 449756); type: functional; details: Rattus norvegicus;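 also: cell death triggered by IL-1 beta plus TNF-alpha plus IFN-gamma mixture; protective hits raise ATP signal compared with cytokine alone wells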
Vero [13] = assay: cells; type: functional; details: Chlorocebus sabaeus
[14] = biological target: T2, Heat shock factor protein 1 (Mus musculus, UniProt P38532); assay: decrease of HSF1-responsive luciferase luminescence – cell-based, NIH3T3, dose retest, confirmation (AID 2382); type: functional;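 also: NIH3T3 fibroblasts with HSF1-driven luciferase reporter stressed by proteasome inhibitor MG132; luminescence from HSF1-driven luciferase expression after 8 hours of MG132 stress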
T2 sequence (P38532 whole entry): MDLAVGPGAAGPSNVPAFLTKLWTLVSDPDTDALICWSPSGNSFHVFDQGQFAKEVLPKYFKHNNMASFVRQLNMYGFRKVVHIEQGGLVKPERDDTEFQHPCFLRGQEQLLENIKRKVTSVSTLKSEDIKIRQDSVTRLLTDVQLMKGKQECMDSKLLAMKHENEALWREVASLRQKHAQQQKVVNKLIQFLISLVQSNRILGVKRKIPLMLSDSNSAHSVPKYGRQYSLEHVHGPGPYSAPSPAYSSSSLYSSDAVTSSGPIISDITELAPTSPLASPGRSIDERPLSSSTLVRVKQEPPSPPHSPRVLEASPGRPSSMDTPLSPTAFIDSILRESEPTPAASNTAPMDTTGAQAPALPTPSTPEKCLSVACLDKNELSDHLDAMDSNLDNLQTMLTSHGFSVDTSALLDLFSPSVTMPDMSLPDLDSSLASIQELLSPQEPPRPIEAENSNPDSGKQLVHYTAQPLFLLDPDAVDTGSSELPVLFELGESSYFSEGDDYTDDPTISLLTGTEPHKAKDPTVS

[15] = biological target: Peroxisome proliferator-activated receptor gamma/Nuclear receptor corepressor 2 (Homo sapiens, UniProt P37231+Q9Y618); assay: Counterscreen for NR2E3 inverse agonists: TR-FRET-based biochemical high throughput dose response assay to identify inverse agonists of the interaction between peroxisome proliferator-activated receptor gamma (PPARg) and nuclear receptor co-repressor 2 (NCOR2).; type: functional
[16] = biological target: Photoreceptor-specific nuclear receptor (Homo sapiens, UniProt Q9Y5X4); assay: ligands suppressing NR2E3 nuclear receptor activity – biochemical, TR-FRET, dose response (AID 463256); type: functional
Chain of Photoreceptor-specific nuclear receptor (Q9Y5X4 whole entry): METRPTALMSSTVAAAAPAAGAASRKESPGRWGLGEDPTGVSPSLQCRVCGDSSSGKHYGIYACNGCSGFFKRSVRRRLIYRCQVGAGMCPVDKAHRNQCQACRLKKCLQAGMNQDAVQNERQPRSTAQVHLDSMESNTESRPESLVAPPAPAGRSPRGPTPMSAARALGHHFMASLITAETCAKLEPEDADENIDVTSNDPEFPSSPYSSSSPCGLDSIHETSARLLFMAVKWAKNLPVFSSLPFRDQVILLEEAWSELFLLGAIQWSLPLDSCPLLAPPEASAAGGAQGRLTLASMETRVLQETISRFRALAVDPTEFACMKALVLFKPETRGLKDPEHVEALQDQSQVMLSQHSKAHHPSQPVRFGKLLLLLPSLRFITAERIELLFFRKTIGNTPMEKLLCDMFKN

[17] = NIH-3T3 fibroblast cytotoxicity, dose response, cytotoxicity control, cell-based, fluorescence, Alamar Blue, secondary assay (AID 2327); type: functional;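 also: NIH-3T3 mouse fibroblasts cultured with fluconazole at 8 µg/mL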
Aspartyl aminopeptidase [18] = biological target: T3, Aspartyl aminopeptidase (Plasmodium falciparum 3D7, UniProt Q8I2J3)
T3 sequence (Q8I2J3 whole entry): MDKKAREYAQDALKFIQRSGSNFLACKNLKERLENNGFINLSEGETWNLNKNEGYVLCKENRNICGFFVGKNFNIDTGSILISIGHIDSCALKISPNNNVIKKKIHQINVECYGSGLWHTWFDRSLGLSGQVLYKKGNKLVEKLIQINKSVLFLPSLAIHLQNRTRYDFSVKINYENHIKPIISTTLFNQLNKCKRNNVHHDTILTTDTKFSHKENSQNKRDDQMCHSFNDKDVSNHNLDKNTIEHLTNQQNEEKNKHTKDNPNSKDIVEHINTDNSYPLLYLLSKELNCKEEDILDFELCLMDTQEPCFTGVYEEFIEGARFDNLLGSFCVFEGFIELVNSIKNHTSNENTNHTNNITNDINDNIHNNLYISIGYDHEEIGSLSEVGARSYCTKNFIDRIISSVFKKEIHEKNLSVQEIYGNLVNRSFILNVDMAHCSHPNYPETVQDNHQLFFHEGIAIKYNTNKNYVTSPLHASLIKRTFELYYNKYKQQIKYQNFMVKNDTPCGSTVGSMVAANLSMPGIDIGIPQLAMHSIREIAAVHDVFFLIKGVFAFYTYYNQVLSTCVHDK

Procathepsin L [19] = biological target: T4, Procathepsin L (Homo sapiens, UniProt P07711)
T4 sequence (P07711 whole entry): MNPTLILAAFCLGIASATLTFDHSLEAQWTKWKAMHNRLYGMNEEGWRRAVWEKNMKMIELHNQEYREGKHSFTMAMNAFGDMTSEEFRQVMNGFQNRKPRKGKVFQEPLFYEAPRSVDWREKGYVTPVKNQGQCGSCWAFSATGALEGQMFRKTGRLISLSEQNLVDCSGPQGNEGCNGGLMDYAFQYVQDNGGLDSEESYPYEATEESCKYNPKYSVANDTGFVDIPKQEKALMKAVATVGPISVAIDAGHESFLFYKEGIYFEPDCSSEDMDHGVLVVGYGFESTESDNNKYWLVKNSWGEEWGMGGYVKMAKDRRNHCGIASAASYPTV

Vero [20] = assay: mammalian cell viability reduction – secondary assay, cytotoxicity control for West Nile virus antiviral project, dose response (AID 1650); type: functional; details: Chlorocebus sabaeus
[21] = fluconazole-exposed Candida albicans growth modulators – fluorescence, retest, confirmation (AID 2467); type: functional, cell-based
Vero [22] = assay: inhibition of WNV-induced cytopathic effect – cell-based, CPE readout (AID 1621); type: functional; details: Chlorocebus sabaeus
[23] = biological target: T5, Microphthalmia-associated transcription factor (Homo sapiens, UniProt O75030); assay: reducers of TRPM1 reporter luminescence, concentration series – cell-based, SK-MEL-5, cherry-picked, set 3, MITF inhibitor project, dose response (AID 493073); type: functional;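 also: SK-MEL-5 melanoma cells with luciferase driven by the MITF target TRPM1 promoter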
T5 sequence (O75030 whole entry): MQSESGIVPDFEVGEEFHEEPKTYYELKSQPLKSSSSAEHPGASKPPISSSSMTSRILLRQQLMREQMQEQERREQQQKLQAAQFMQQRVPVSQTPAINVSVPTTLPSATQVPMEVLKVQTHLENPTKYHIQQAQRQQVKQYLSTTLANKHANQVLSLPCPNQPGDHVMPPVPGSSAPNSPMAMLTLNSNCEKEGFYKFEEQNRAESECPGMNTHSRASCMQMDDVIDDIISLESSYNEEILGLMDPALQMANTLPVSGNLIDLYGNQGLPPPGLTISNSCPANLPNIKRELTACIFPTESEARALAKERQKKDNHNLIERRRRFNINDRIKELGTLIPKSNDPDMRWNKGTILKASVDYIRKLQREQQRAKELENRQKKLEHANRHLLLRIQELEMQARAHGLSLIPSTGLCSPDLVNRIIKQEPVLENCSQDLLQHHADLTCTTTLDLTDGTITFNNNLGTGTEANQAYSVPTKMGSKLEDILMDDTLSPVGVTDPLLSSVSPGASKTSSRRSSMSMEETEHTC

Paired box protein Pax-8 = Paired box protein Pax-8 (Homo sapiens, UniProt Q06710); assay: PAX8 transcriptional activity inhibition in RMG-I – RMG-I cells, luciferase, cherry-pick, dose response (AID 687027); type: functional, cell-based;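 also: luciferase reporter driven by Pax8 target thyroperoxidase promoter measured by SteadyGlo luminescence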
Chain of Paired box protein Pax-8 (Q06710 whole entry): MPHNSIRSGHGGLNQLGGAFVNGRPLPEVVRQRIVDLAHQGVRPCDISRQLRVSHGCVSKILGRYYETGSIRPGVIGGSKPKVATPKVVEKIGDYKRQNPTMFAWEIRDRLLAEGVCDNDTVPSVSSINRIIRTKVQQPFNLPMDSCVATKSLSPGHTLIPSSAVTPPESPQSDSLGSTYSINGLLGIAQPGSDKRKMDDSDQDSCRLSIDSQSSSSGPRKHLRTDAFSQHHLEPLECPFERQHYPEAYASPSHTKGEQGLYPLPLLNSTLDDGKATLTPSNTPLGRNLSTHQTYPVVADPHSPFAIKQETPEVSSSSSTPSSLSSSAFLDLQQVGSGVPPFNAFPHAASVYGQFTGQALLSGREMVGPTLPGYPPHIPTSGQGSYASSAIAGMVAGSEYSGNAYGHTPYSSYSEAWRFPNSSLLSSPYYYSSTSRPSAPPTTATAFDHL

[24] = biological target: Muscarinic acetylcholine receptor M1 (Rattus norvegicus, UniProt P08482); assay: concentration-dependent potentiation of ACh at M1 – cell-based, calcium mobilization, CHO-K1, ACh EC20, dose response (AID 2425); type: functional
Chain of Muscarinic acetylcholine receptor M1 (P08482 whole entry): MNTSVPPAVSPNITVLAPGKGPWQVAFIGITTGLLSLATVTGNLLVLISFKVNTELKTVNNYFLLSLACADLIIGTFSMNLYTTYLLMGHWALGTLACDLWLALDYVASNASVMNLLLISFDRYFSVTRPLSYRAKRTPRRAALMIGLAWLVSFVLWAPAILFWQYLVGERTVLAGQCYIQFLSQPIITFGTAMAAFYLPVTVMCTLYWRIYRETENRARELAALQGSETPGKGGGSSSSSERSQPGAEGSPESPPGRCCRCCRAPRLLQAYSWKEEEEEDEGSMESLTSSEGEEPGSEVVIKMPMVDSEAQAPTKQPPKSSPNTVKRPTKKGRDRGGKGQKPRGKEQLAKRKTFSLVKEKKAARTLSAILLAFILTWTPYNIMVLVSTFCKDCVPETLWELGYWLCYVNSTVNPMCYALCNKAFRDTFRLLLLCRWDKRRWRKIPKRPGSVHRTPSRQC

[25] = HPDE-C7 pancreatic duct cell viability loss – fluorescence, HTS (AID 430); type: functional, cell-based; details: Homo sapiens
[26] = viability loss of HPDE-C7K cells – cell-based, fluorescence, HTS, primary screen (AID 431); type: functional; details: Homo sapiens
Cytochrome P450 2C19 = Cytochrome P450 2C19 (Homo sapiens, UniProt P33261); assay: qHTS Assay for Inhibitors and Substrates of Cytochrome P450 2C19. [Related pubchem assays: 410 ]; type: ADME; details: read-out: Potency
Chain of Cytochrome P450 2C19 (P33261 whole entry): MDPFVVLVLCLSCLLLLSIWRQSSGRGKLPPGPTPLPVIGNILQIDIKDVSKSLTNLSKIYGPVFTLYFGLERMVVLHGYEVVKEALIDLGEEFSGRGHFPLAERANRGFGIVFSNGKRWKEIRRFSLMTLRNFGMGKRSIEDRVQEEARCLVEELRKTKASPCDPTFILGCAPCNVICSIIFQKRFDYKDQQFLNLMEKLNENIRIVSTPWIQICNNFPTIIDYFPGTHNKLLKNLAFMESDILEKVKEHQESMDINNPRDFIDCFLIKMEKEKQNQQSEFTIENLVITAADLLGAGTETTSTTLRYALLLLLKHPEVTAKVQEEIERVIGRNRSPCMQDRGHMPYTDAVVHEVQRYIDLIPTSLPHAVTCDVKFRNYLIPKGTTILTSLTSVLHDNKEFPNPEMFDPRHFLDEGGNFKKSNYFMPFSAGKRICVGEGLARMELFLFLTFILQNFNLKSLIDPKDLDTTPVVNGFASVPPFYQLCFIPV

Leucine aminopeptidase = biological target: T6, Leucine aminopeptidase (Plasmodium falciparum 3D7, UniProt Q8IL11); assay: P. falciparum M17LAP inhibitors, primary screen, biochemical, fluorogenic H-Leu-NHMec substrate, 1536-well (AID 1619); type: functional
T6 sequence (Q8IL11 whole entry): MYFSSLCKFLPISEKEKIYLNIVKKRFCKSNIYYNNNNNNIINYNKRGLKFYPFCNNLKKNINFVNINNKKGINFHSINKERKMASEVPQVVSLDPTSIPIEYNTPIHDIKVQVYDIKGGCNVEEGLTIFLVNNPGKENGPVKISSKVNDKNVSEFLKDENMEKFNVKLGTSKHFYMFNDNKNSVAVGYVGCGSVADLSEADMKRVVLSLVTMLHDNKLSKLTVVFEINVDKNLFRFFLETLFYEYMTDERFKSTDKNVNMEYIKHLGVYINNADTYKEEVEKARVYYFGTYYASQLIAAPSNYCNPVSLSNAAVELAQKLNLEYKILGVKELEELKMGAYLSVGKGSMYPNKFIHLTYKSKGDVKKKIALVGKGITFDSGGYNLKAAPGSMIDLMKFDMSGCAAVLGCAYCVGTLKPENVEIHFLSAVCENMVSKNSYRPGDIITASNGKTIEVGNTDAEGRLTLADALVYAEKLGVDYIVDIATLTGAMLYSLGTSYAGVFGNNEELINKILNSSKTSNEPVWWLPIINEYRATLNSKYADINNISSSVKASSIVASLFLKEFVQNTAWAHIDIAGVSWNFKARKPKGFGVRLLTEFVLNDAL

Aspartyl aminopeptidase [27] = biological target: T3, Aspartyl aminopeptidase; assay: Counterscreen for inhibitors of M1 and M17 aminopeptidases: QFRET-based biochemical high throughput dose response assay for inhibitors of the Plasmodium falciparum M18 Aspartyl Aminopeptidase (PFM18AAP). [Related PubChem assays: 1619 (Screening assay (M17LAP inhibitors).), 1445 (Screening assay (M1AAP inhibitors).)]
Procathepsin L [28] = biological target: T4, Procathepsin L; assay: CTSL1 protease inhibition – biochemical, QFRET, 1536-well, counter-screen for M1/M17 aminopeptidase inhibitor project, dose response (AID 2214)
[29] = biological target: T2, Heat shock factor protein 1; assay: enhancement of HSF1-driven luciferase signal – cell-based, NIH3T3, luminescence, dose retest, confirmation (AID 435004); type: functional;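 also: stress induced by proteasome inhibitor MG132 added 30 min after compound; luciferase reporter driven by HSF1 response element in NIH3T3 cells; actives raise luminescence as potentiators of the MG132 stress response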
NADPH oxidase 1 = NADPH oxidase 1 (Homo sapiens, UniProt Q9Y5S8); assay: Late-stage luminescence-based cell-based dose response assay to identify inhibitors of NADPH oxidase 1 (NOX1): Purchased analogs 2.; type: functional
Chain of NADPH oxidase 1 (Q9Y5S8 whole entry): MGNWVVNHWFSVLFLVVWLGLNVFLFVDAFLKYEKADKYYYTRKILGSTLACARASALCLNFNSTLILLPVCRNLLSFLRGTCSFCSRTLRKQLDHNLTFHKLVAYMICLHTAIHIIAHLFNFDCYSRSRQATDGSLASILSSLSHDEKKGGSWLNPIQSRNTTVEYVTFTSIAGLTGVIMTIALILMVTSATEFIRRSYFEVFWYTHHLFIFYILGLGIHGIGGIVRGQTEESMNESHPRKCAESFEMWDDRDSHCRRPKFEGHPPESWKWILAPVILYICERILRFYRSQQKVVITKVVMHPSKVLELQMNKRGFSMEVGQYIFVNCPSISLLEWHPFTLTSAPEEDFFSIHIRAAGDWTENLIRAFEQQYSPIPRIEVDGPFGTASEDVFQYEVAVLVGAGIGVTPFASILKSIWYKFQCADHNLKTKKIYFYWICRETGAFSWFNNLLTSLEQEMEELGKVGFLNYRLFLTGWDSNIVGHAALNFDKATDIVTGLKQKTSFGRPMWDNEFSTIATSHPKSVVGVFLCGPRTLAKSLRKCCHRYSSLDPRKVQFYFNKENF

Brc1ccc(-c2nnc3ccc(N4CCN(c5ccccc5)CC4)nn23)cc1
IC50 (Bcl-2-related protein A1 [1]): 8.88 µM (active) | IC50 (Bcl-2-related protein A1 [2]): > 100 µM (not active)

COc1ccc(C(=O)N/N=C(\C)c2ccccn2)cc1OC
EC50 (BJ [3]): 9.02 µM (active) | EC50 (BJ [4]): 2.07 µM (active) | IC50 [5]: 0.937 µM (active) | EC50 (BJ [6]): 4.38 µM (active) | EC50 [7]: 5.69 µM (active) | CC50 [8]: 0.822 µM (active) | CC50 [9]: 9.24 µM (active) | CC50 [10]: 2.88 µM (active) | IC50 (Nonstructural protein 1): 2.93 µM (active) | IC50 (cells): 3.01 µM (active) | IC50 (Vero [11]): > 25 µM (active) | EC50 (BJ [12]): 1.23 µM (active) | AC50 (INS1): 0.584 µM (active) | CC50 (Vero [13]): 2.83 µM (active)

O=C(CCCCCn1c(=S)[nH]c2cc3c(cc2c1=O)OCO3)N1CCN(C(=O)c2ccco2)CC1
EC50 [14]: > 195 µM (not active) | IC50 [15]: > 39.8 µM (not active) | IC50 [16]: 3.68 µM (active)

BrC(=C\c1ccccc1)/C=N/n1cnnc1
EC50 [17]: > 150 µM (inconclusive) | IC50 (Aspartyl aminopeptidase [18]): 1.89 µM (active) | IC50 (Procathepsin L [19]): > 59.6 µM (not active) | CC50 (Vero [20]): 6.4 µM (active) | EC50 [21]: 1.01 µM (active) | IC50 (Vero [22]): 39.2 µM (active) | AC50 [23]: 7.26 µM (active) | AC50 (Paired box protein Pax-8): 3.84 µM (active)

Cc1cc(NC(=O)CS(=O)(=O)c2cn(Cc3cccc(F)c3)c3ccccc23)no1
EC50 [24]: 5.32 µM (active)

O=S(=O)(c1ccc(Cl)c(Cl)c1)N1CCc2nc3ccccc3n2CC1
EC50 [25]: 0.49 µM (active) | EC50 [26]: > 20 µM (not active)

O=c1cc(-c2ccc(O)cc2O)oc2ccccc12
AC50 (Cytochrome P450 2C19): 6.31 µM (inconclusive)

O=C(CSc1nc(O)cc(=O)n1-c1ccccc1)Nc1ccc2c3c(cccc13)CC2
IC50 (Leucine aminopeptidase): 1.45 µM (active) | IC50 (Aspartyl aminopeptidase [27]): > 73.5 µM (not active) | IC50 (Procathepsin L [28]): > 59.6 µM (not active) | EC50 [29]: > 260 µM (inactive)

C=C(NNc1c(F)c(F)nc(F)c1F)c1ccc(-n2cncn2)cc1
IC50 (NADPH oxidase 1): > 17 µM (not active)
